These results are taken from ChEMBL document CHEMBL4715788, “Hit-to-Lead Optimization of Mouse Trace Amine Associated Receptor 1 (mTAAR1) Agonists with a Diphenylmethane-Scaffold: Design, Synthesis, and Biological Study” (J Med Chem, 2016).

Calls of active or inactive are those of the source. No cut-off for these calls is given here.

Test [1] concerns HepG2. Briefly: Hyperglycemic activity in human HepG2 cells incubated for 4 hrs by colorimetric glucose assay. The note with it: HepG2, 4 h. Format: functional, cell-based.
The target in test [2] is Trace amine-associated receptor 1 (Mus musculus) (UniProt Q923Y8). Briefly: Agonist activity at mouse TAAR1 expressed in HEK293T cells assessed as induction of cAMP production by BRET assay relative to control. Format: functional, cell-based. The note with it: filed as agonist. For orientation: Changes in cAMP serve as a functional read-out for many G protein-coupled receptors.
Sequence of Trace amine-associated receptor 1 (Mus musculus) (Q923Y8 whole entry): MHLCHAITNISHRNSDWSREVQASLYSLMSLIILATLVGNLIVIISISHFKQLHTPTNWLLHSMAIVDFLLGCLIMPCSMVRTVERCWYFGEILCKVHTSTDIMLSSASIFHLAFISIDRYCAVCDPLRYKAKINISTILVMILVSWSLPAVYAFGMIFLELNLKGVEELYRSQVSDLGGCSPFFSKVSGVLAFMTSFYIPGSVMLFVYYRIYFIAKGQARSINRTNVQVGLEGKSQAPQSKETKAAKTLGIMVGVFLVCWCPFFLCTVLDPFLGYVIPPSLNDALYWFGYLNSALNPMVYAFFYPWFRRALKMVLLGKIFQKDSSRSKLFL

Test [3] has as its target Trace amine-associated receptor 1 (Mus musculus, UniProt Q923Y8). The test can be described thus: Agonist activity at mouse TAAR1 expressed in HEK293T cells assessed as induction of cAMP production by BRET assay. Format: functional, cell-based.
A further test concerns Mus musculus. Briefly: Increase in plasma glycaemia in CD1 mouse at 4.0 ug/kg, ip measured after 15 mins. Format: functional, organism-based.
The test system of test [4] is HepG2. The test can be described thus: Increase in glucose production in human HepG2 cells at 0.1 to 1 uM incubated for 4 hrs by colorimetric glucose assay. The note with it: dose 0.1-1 µM. Format: functional, cell-based.
Test [5] concerns HepG2. Briefly: Inhibition of glucose production in human HepG2 cells at 10 uM incubated for 4 hrs by colorimetric glucose assay. Format: functional, cell-based.
The test system of test [6] is HepG2. The test can be described thus: Increase in glucose production in human HepG2 cells at incubated for 4 hrs by colorimetric glucose assay. Format: functional, cell-based.

As usually defined, the EC50 is the concentration at which the effect is half-maximal.

Sequence of Trace amine-associated receptor 1 (Q923Y8 whole entry): as above

In the test on HepG2 [1], `NCCc1ccc(Oc2ccc(O)cc2)c(I)c1` displayed an EC50 of 840 nM.

For the molecule `CCNc1ccc(Cc2ccc(CCN)cc2C)cc1C(C)C`, in test [2], the Efficacy came out at 100%. The EC50 in test [3] worked out at 102 nM.

Turning to `CC(=O)Nc1ccc(Cc2ccc(CCN)cc2C)cc1`, the Efficacy in test [2] was 100%. Moreover, the EC50 in test [3] turned out to be 3100 nM.

Take `CC(=O)Nc1ccc(Cc2ccc(OCCN)cc2)cc1`: in test [3], the EC50 is above 10000 nM.

As for `Cc1cc(CCN)ccc1-c1ccc(N)cc1`, the Efficacy in test [2] worked out at 100%. Further, in test [3], the EC50 came to 1180 nM.

Consider `Cc1cc(OCCN)cc(C)c1Cc1ccc(N)cc1`, for which the Efficacy in test [2] is 100%. The EC50 in test [3] was 134 nM.

For the molecule `CCN(C(C)=O)c1ccc(Cc2ccc(CCN)cc2C)cc1C(C)C`, the Efficacy in test [2] came to 100%. Further, the EC50 in test [3] was determined as 440 nM.

For `CC(=O)Nc1ccc(Cc2ccc(OCCN)cc2C)cc1`, the EC50 in test [3] was above 10000 nM.

As to `CCN(C(C)=O)c1ccc(Cc2ccc(CCNC(C)=O)cc2C)cc1C(C)C`, the Efficacy in test [2] was found to be 100%. The EC50 in test [3] is above 10000 nM.

For the molecule `Cc1cc(CCN)cc(C)c1Cc1ccc(N)cc1`, in test [2], the Efficacy came out at 100%. In addition, the EC50 in test [3] is 158 nM.

Regarding `Cc1cc(OCCNC(=N)NC(=N)N)ccc1Cc1ccc(N)cc1`, the 50% effective concentration (EC50) in test [3] is above 10000 nM.

Turning to `Cc1cc(CCN)ccc1Cc1ccc(O)cc1`, the outcome in the test on Mus musculus and in the test on HepG2 [4] was Active. In test [2], the Efficacy was found to be 100%. In addition, in the test on HepG2 [5], the inhibition result is “Active”. Further, the EC50 in test [3] was found to be 98 nM.

Turning to `Cc1cc(CCN)cc(C)c1-c1ccc(N)cc1`, in test [2], the Efficacy was 100%. Further, the concentration for a half-maximal effect (EC50) in test [3] amounted to 633 nM.

`CC(=O)Nc1ccc(Cc2ccc(OCCNC(=N)NC(=N)N)cc2C)cc1`: the concentration for a half-maximal effect (EC50) in test [3] is above 10000 nM.

For `Cc1cc(CCN)ccc1Cc1ccc(N)cc1`, the outcome in the test on Mus musculus was Active. In addition, the Efficacy in test [2] was 100%. Besides, the Activity result in the test on HepG2 [6] is “Dose-dependent effect”. Besides, the EC50 in test [3] turned out to be 119 nM.

Turning to `CC(=O)NCCOc1ccc(Cc2ccc(NC(C)=O)cc2)c(C)c1`, the EC50 in test [3] is above 10000 nM.

`CC(=O)NCCOc1ccc(Cc2ccc(NC(C)=O)cc2)cc1`: the half-maximal effective concentration (EC50) in test [3] is above 10000 nM.
